# Experimental data published in ChEMBL document CHEMBL5143672, “New diarylpentanoids and chalcones as potential antimicrobial adjuvants” (2022).
# System: not listed separately
# Experiment: Inhibition of Multidrug resistance efflux pump in Staphylococcus aureus 272123 assessed as relative fluorescence index using ethidium bromide as substrate at 50 uM by fluorescence based analysis
# Conditions: not given
row,Structure (SMILES),RFU
1,Cc1cccc(/C=C2\COC/C(=C\c3cccc(C)c3)C2=O)c1,0.11
2,COc1cc(/C=C2\COC/C(=C\c3cc(OC)cc(OC)c3)C2=O)cc(OC)c1,0.25
3,Cc1ccccc1/C=C1\COC/C(=C\c2ccccc2C)C1=O,-0.23
4,O=C1/C(=C/c2ccccc2Cl)COC/C1=C\c1ccccc1Cl,-0.16
5,COc1cc(/C=C2\COC/C(=C\c3cc(OC)c(OC)c(OC)c3)C2=O)cc(OC)c1OC,0.02
6,O=C1/C(=C/c2cccc(F)c2)COC/C1=C\c1cccc(F)c1,-0.16
7,O=C1/C(=C/c2ccc(Cl)cc2Cl)COC/C1=C\c1ccc(Cl)cc1Cl,-0.25
8,COc1ccc(/C=C2\COC/C(=C\c3ccc(OC)cc3OC)C2=O)c(OC)c1,-0.19

# System: Enterococcus faecalis
# Experiment: Antibacterial activity against Enterococcus faecalis ATCC 29212 assessed as inhibition of bacterial growth by broth microdilution method
# Assay type: functional
# Conditions: not given
row,Structure (SMILES),MIC [µg/mL]
1,Cc1cccc(/C=C2\COC/C(=C\c3cccc(C)c3)C2=O)c1,> 64
2,COc1cc(/C=C2\COC/C(=C\c3cc(OC)cc(OC)c3)C2=O)cc(OC)c1,> 64
3,Cc1ccccc1/C=C1\COC/C(=C\c2ccccc2C)C1=O,> 64
4,O=C1/C(=C/c2ccccc2Cl)COC/C1=C\c1ccccc1Cl,> 64
5,COc1cc(/C=C2\COC/C(=C\c3cc(OC)c(OC)c(OC)c3)C2=O)cc(OC)c1OC,> 64
6,O=C1/C(=C/c2cccc(F)c2)COC/C1=C\c1cccc(F)c1,> 64
7,O=C1/C(=C/c2ccc(Cl)cc2Cl)COC/C1=C\c1ccc(Cl)cc1Cl,> 64
8,COc1ccc(/C=C2\COC/C(=C\c3ccc(OC)cc3OC)C2=O)c(OC)c1,> 64

# System: Aspergillus fumigatus
# Experiment: Antifungal activity against Aspergillus fumigatus ATCC 204305 assessed as inhibition of fungal growth by broth microdilution method
# Assay type: functional
# Conditions: not given
row,Structure (SMILES),MIC [µg/mL]
1,Cc1cccc(/C=C2\COC/C(=C\c3cccc(C)c3)C2=O)c1,> 128
2,COc1cc(/C=C2\COC/C(=C\c3cc(OC)cc(OC)c3)C2=O)cc(OC)c1,> 128
3,Cc1ccccc1/C=C1\COC/C(=C\c2ccccc2C)C1=O,> 128
4,O=C1/C(=C/c2ccccc2Cl)COC/C1=C\c1ccccc1Cl,> 128
5,COc1cc(/C=C2\COC/C(=C\c3cc(OC)c(OC)c(OC)c3)C2=O)cc(OC)c1OC,> 128
6,O=C1/C(=C/c2cccc(F)c2)COC/C1=C\c1cccc(F)c1,> 128
7,O=C1/C(=C/c2ccc(Cl)cc2Cl)COC/C1=C\c1ccc(Cl)cc1Cl,> 128
8,COc1ccc(/C=C2\COC/C(=C\c3ccc(OC)cc3OC)C2=O)c(OC)c1,> 128

# System: Escherichia coli
# Experiment: Antibacterial activity against Escherichia coli ATCC 25922 assessed as inhibition of bacterial growth by broth microdilution method
# Assay type: functional
# Conditions: not given
row,Structure (SMILES),MIC [µg/mL]
1,Cc1cccc(/C=C2\COC/C(=C\c3cccc(C)c3)C2=O)c1,> 64
2,COc1cc(/C=C2\COC/C(=C\c3cc(OC)cc(OC)c3)C2=O)cc(OC)c1,> 64
3,Cc1ccccc1/C=C1\COC/C(=C\c2ccccc2C)C1=O,> 64
4,O=C1/C(=C/c2ccccc2Cl)COC/C1=C\c1ccccc1Cl,> 64
5,COc1cc(/C=C2\COC/C(=C\c3cc(OC)c(OC)c(OC)c3)C2=O)cc(OC)c1OC,> 64
6,O=C1/C(=C/c2cccc(F)c2)COC/C1=C\c1cccc(F)c1,> 64
7,O=C1/C(=C/c2ccc(Cl)cc2Cl)COC/C1=C\c1ccc(Cl)cc1Cl,> 64
8,COc1ccc(/C=C2\COC/C(=C\c3ccc(OC)cc3OC)C2=O)c(OC)c1,> 64

# System: Escherichia coli
# Experiment: Antimicrobial adjuvant activity against ESBL-producing Escherichia coli SA/2 assessed as potentiation of cefotaxime-induced antibacterial activity by measuring fold reduction in cefotaxime MIC at 64 ug/ml by broth microdilution method
# Assay type: functional
# Conditions: dose 64 µg/ml
row,Structure (SMILES),fold change (FC)
1,Cc1cccc(/C=C2\COC/C(=C\c3cccc(C)c3)C2=O)c1,2
2,O=C1/C(=C/c2ccccc2Cl)COC/C1=C\c1ccccc1Cl,2
3,COc1cc(/C=C2\COC/C(=C\c3cc(OC)c(OC)c(OC)c3)C2=O)cc(OC)c1OC,2
4,O=C1/C(=C/c2ccc(Cl)cc2Cl)COC/C1=C\c1ccc(Cl)cc1Cl,2
5,COc1ccc(/C=C2\COC/C(=C\c3ccc(OC)cc3OC)C2=O)c(OC)c1,8

# System: Enterococcus faecalis
# Experiment: Antimicrobial adjuvant activity against Enterococcus faecalis B3/101 assessed as potentiation of vancomycin-induced antibacterial activity by measuring fold reduction in vancomycin MIC at 64 ug/ml by broth microdilution method
# Assay type: functional
# Conditions: dose 64 µg/ml
row,Structure (SMILES),fold change (FC)
1,Cc1cccc(/C=C2\COC/C(=C\c3cccc(C)c3)C2=O)c1,2
2,COc1cc(/C=C2\COC/C(=C\c3cc(OC)cc(OC)c3)C2=O)cc(OC)c1,4
3,Cc1ccccc1/C=C1\COC/C(=C\c2ccccc2C)C1=O,2
4,O=C1/C(=C/c2cccc(F)c2)COC/C1=C\c1cccc(F)c1,2

# System: Staphylococcus aureus
# Experiment: Antibacterial activity against methicillin and ofloxacin-resistant Staphylococcus aureus 272123 assessed as inhibition of bacterial growth by broth microdilution method
# Assay type: functional
# Conditions: not given
row,Structure (SMILES),MIC [µg/mL]
1,Cc1cccc(/C=C2\COC/C(=C\c3cccc(C)c3)C2=O)c1,> 64
2,COc1cc(/C=C2\COC/C(=C\c3cc(OC)cc(OC)c3)C2=O)cc(OC)c1,> 64
3,Cc1ccccc1/C=C1\COC/C(=C\c2ccccc2C)C1=O,> 64
4,O=C1/C(=C/c2ccccc2Cl)COC/C1=C\c1ccccc1Cl,> 64
5,COc1cc(/C=C2\COC/C(=C\c3cc(OC)c(OC)c(OC)c3)C2=O)cc(OC)c1OC,> 64
6,O=C1/C(=C/c2cccc(F)c2)COC/C1=C\c1cccc(F)c1,> 64
7,O=C1/C(=C/c2ccc(Cl)cc2Cl)COC/C1=C\c1ccc(Cl)cc1Cl,> 64
8,COc1ccc(/C=C2\COC/C(=C\c3ccc(OC)cc3OC)C2=O)c(OC)c1,> 64

# System: Trichophyton rubrum
# Experiment: Antifungal activity against Trichophyton rubrum FF5 assessed as inhibition of fungal growth by broth microdilution method
# Assay type: functional
# Conditions: not given
row,Structure (SMILES),MIC [µg/mL]
1,Cc1cccc(/C=C2\COC/C(=C\c3cccc(C)c3)C2=O)c1,> 128
2,COc1cc(/C=C2\COC/C(=C\c3cc(OC)cc(OC)c3)C2=O)cc(OC)c1,> 128
3,Cc1ccccc1/C=C1\COC/C(=C\c2ccccc2C)C1=O,> 128
4,O=C1/C(=C/c2ccccc2Cl)COC/C1=C\c1ccccc1Cl,> 128
5,COc1cc(/C=C2\COC/C(=C\c3cc(OC)c(OC)c(OC)c3)C2=O)cc(OC)c1OC,> 128
6,O=C1/C(=C/c2cccc(F)c2)COC/C1=C\c1cccc(F)c1,> 128
7,O=C1/C(=C/c2ccc(Cl)cc2Cl)COC/C1=C\c1ccc(Cl)cc1Cl,> 128
8,COc1ccc(/C=C2\COC/C(=C\c3ccc(OC)cc3OC)C2=O)c(OC)c1,> 128

# System: Salmonella enterica subsp. enterica serovar Typhimurium
# Experiment: Inhibition of Multidrug resistance efflux pump in Salmonella enterica serovar typhimurium SL1344 (SE03) assessed as relative fluorescence index using ethidium bromide as substrate at 50 uM by fluorescence based analysis
# Conditions: not given
row,Structure (SMILES),RFU
1,Cc1cccc(/C=C2\COC/C(=C\c3cccc(C)c3)C2=O)c1,-0.12
2,COc1cc(/C=C2\COC/C(=C\c3cc(OC)cc(OC)c3)C2=O)cc(OC)c1,0.09
3,Cc1ccccc1/C=C1\COC/C(=C\c2ccccc2C)C1=O,-0.08
4,O=C1/C(=C/c2ccccc2Cl)COC/C1=C\c1ccccc1Cl,-0.08
5,COc1cc(/C=C2\COC/C(=C\c3cc(OC)c(OC)c(OC)c3)C2=O)cc(OC)c1OC,-0.05
6,O=C1/C(=C/c2cccc(F)c2)COC/C1=C\c1cccc(F)c1,0.04
7,O=C1/C(=C/c2ccc(Cl)cc2Cl)COC/C1=C\c1ccc(Cl)cc1Cl,-0.13
8,COc1ccc(/C=C2\COC/C(=C\c3ccc(OC)cc3OC)C2=O)c(OC)c1,-0.15

# System: Pseudomonas aeruginosa
# Experiment: Antibacterial activity against Pseudomonas aeruginosa ATCC 27853 assessed as inhibition of bacterial growth by broth microdilution method
# Assay type: functional
# Conditions: not given
row,Structure (SMILES),MIC [µg/mL]
1,Cc1cccc(/C=C2\COC/C(=C\c3cccc(C)c3)C2=O)c1,> 64
2,COc1cc(/C=C2\COC/C(=C\c3cc(OC)cc(OC)c3)C2=O)cc(OC)c1,> 64
3,Cc1ccccc1/C=C1\COC/C(=C\c2ccccc2C)C1=O,> 64
4,O=C1/C(=C/c2ccccc2Cl)COC/C1=C\c1ccccc1Cl,> 64
5,COc1cc(/C=C2\COC/C(=C\c3cc(OC)c(OC)c(OC)c3)C2=O)cc(OC)c1OC,> 64
6,O=C1/C(=C/c2cccc(F)c2)COC/C1=C\c1cccc(F)c1,> 64
7,O=C1/C(=C/c2ccc(Cl)cc2Cl)COC/C1=C\c1ccc(Cl)cc1Cl,> 64
8,COc1ccc(/C=C2\COC/C(=C\c3ccc(OC)cc3OC)C2=O)c(OC)c1,> 64

# System: Candida albicans
# Experiment: Antifungal activity against Candidia albicans ATCC 10231 assessed as inhibition of fungal growth by broth microdilution method
# Assay type: functional
# Conditions: not given
row,Structure (SMILES),MIC [µg/mL]
1,Cc1cccc(/C=C2\COC/C(=C\c3cccc(C)c3)C2=O)c1,> 128
2,COc1cc(/C=C2\COC/C(=C\c3cc(OC)cc(OC)c3)C2=O)cc(OC)c1,> 128
3,Cc1ccccc1/C=C1\COC/C(=C\c2ccccc2C)C1=O,> 128
4,O=C1/C(=C/c2ccccc2Cl)COC/C1=C\c1ccccc1Cl,> 128
5,COc1cc(/C=C2\COC/C(=C\c3cc(OC)c(OC)c(OC)c3)C2=O)cc(OC)c1OC,> 128
6,O=C1/C(=C/c2cccc(F)c2)COC/C1=C\c1cccc(F)c1,> 128
7,O=C1/C(=C/c2ccc(Cl)cc2Cl)COC/C1=C\c1ccc(Cl)cc1Cl,> 128
8,COc1ccc(/C=C2\COC/C(=C\c3ccc(OC)cc3OC)C2=O)c(OC)c1,> 128

# System: Staphylococcus aureus
# Experiment: Antibacterial activity against Staphylococcus aureus ATCC 25923 assessed as inhibition of bacterial growth by broth microdilution method
# Assay type: functional
# Conditions: not given
row,Structure (SMILES),MIC [µg/mL]
1,Cc1cccc(/C=C2\COC/C(=C\c3cccc(C)c3)C2=O)c1,> 64
2,COc1cc(/C=C2\COC/C(=C\c3cc(OC)cc(OC)c3)C2=O)cc(OC)c1,> 64
3,Cc1ccccc1/C=C1\COC/C(=C\c2ccccc2C)C1=O,> 64
4,O=C1/C(=C/c2ccccc2Cl)COC/C1=C\c1ccccc1Cl,> 64
5,COc1cc(/C=C2\COC/C(=C\c3cc(OC)c(OC)c(OC)c3)C2=O)cc(OC)c1OC,> 64
6,O=C1/C(=C/c2cccc(F)c2)COC/C1=C\c1cccc(F)c1,> 64
7,O=C1/C(=C/c2ccc(Cl)cc2Cl)COC/C1=C\c1ccc(Cl)cc1Cl,> 64
8,COc1ccc(/C=C2\COC/C(=C\c3ccc(OC)cc3OC)C2=O)c(OC)c1,> 64

# System: Salmonella typhimurium
# Experiment: Antibacterial activity against Salmonella enterica serovar typhimurium SL1344 (SE03) assessed as inhibition of bacterial growth by broth microdilution method
# Assay type: functional, Salmonella enterica subsp. enterica serovar Typhimurium
# Conditions: not given
row,Structure (SMILES),MIC [µg/mL]
1,Cc1cccc(/C=C2\COC/C(=C\c3cccc(C)c3)C2=O)c1,> 64
2,COc1cc(/C=C2\COC/C(=C\c3cc(OC)cc(OC)c3)C2=O)cc(OC)c1,> 64
3,Cc1ccccc1/C=C1\COC/C(=C\c2ccccc2C)C1=O,> 64
4,O=C1/C(=C/c2ccccc2Cl)COC/C1=C\c1ccccc1Cl,> 64
5,COc1cc(/C=C2\COC/C(=C\c3cc(OC)c(OC)c(OC)c3)C2=O)cc(OC)c1OC,> 64
6,O=C1/C(=C/c2cccc(F)c2)COC/C1=C\c1cccc(F)c1,> 64
7,O=C1/C(=C/c2ccc(Cl)cc2Cl)COC/C1=C\c1ccc(Cl)cc1Cl,> 64
8,COc1ccc(/C=C2\COC/C(=C\c3ccc(OC)cc3OC)C2=O)c(OC)c1,> 64
